One assay concerns the target D(2) dopamine receptor (Rattus norvegicus, UniProt P61169). Description: Ability to inhibit [3H]spiperone binding to Dopamine receptor D2 in rat corpus striatum. Format: tissue-based.
For assay [1], the species on record is Rattus norvegicus. Kind of assay: Inhibition of the rat conditioned avoidance response, CAR (Tranquilizing activity, peroral). The format is functional. The conditions noted are these: po.
In assay [2] the test system is Rattus norvegicus. Kind of assay: Induction of catalepsy in rat (po).
Assay [3] deals with T1, Adrenergic receptor alpha-1 (Rattus norvegicus, UniProt P15823+P23944+P43140).
T1 sequence (P15823 whole entry): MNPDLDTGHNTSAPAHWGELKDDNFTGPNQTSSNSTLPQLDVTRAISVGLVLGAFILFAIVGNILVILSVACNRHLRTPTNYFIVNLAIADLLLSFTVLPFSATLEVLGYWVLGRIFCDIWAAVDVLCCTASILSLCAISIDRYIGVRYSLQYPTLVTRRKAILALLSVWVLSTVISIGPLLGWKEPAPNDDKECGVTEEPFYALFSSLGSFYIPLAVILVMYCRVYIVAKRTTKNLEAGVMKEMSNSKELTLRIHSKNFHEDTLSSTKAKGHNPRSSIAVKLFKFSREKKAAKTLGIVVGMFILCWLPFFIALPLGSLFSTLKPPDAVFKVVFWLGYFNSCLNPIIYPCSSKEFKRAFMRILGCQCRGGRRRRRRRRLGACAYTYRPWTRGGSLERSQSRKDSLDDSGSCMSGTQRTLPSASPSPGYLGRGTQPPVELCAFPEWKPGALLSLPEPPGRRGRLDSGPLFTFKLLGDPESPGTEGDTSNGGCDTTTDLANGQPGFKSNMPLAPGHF
T1 sequence (P23944 whole entry): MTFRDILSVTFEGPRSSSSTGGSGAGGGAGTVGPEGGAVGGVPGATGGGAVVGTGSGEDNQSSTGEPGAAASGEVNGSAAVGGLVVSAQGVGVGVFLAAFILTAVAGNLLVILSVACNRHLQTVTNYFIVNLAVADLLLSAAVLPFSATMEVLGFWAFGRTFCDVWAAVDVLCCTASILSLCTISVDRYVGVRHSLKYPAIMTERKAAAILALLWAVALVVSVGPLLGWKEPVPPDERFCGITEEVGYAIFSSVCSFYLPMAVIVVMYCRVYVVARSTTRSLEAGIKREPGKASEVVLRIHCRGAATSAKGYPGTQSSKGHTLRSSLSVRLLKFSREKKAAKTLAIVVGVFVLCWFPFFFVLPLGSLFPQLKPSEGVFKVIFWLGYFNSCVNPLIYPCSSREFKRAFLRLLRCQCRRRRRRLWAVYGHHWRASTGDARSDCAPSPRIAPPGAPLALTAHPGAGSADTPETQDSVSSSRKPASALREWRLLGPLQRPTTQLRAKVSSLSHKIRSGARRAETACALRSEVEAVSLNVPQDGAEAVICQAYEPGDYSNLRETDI
T1 sequence (P43140 whole entry): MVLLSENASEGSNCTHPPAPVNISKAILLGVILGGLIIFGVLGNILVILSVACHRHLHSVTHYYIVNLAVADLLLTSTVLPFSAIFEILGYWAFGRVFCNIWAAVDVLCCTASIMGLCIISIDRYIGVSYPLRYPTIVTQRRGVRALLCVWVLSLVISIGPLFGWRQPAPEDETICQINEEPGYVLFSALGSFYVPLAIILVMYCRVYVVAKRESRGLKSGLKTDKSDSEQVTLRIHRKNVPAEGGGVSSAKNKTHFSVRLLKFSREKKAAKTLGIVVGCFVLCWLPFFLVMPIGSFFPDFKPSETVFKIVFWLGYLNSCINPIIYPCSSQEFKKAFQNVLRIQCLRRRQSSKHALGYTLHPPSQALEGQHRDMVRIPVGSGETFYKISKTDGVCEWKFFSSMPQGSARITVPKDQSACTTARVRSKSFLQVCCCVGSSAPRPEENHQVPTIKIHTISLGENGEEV
Kind of assay: Ability to inhibit [3H]WB-4101 binding to rat cortical alpha-1-adrenergic receptor. The format is protein assay.

Assay [4] relates to Rattus norvegicus. Description: Ability to reverse trifluoperazine-induced catalepsy in rat (po). The format is functional.
The subject of assay [5] is Rattus norvegicus. Kind of assay: In vivo inhibition of apomorphine (APO) induced stereotypy in rats (po). The format is functional.
In assay [6] the test system is Rattus norvegicus. Description: Ability to reverse trifluoperazine-induced catalepsy in rat (po); IA = Compound induced catalepsy. The format is functional, organism-based.

Calls of active or inactive are those of the source. The rule behind the calls is not given here.

Sequence of D(2) dopamine receptor (P61169 whole entry): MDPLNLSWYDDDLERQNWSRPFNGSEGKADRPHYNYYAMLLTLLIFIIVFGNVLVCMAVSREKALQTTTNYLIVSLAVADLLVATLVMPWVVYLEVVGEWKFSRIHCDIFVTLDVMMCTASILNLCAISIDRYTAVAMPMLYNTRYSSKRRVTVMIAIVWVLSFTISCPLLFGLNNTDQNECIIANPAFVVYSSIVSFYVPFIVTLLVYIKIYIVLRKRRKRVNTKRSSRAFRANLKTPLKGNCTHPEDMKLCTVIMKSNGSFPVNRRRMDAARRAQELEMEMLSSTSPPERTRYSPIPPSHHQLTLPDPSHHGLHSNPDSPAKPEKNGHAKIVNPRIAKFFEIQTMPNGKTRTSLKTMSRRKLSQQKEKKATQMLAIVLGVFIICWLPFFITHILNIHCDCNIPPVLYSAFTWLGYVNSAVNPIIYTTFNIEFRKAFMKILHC

As a reminder, the IC50 is the concentration needed to halve the response being measured. Read a low IC50 as greater potency in that assay. The term ED50 denotes the dose at which the effect has come halfway, by size or by number of responders. In the case of `CC1(C)CC(=O)N(CCCCN2CCN(c3ncccc3-c3ccccc3)CC2)C(=O)C1`, the IC50 at D(2) dopamine receptor amounted to 109 nM. Further, the values for the median effective dose (ED50) in the assay filed under Rattus norvegicus [1] and in the assay on Rattus norvegicus [2] were 67.6 mg/kg and 90.8 mg/kg, respectively.
Consider `O=Cc1cccnc1N1CCN(CCCCN2C(=O)COCC2=O)CC1`, for which, at D(2) dopamine receptor, the IC50 is more than 1000 nM. Moreover, in the assay filed under Rattus norvegicus [1], the ED50 was more than 100 mg/kg.
For the molecule `COC(=O)c1cccnc1N1CCN(CCCCN2C(=O)SC3(CCCC3)C2=O)CC1`, the IC50 in assay [3] worked out at 7.8 nM; on D(2) dopamine receptor it was 138 nM. Also, the ED50 in the assay on Rattus norvegicus [4] amounted to 5.05 mg/kg; in the assay filed under Rattus norvegicus [1], 29.8 mg/kg; with Rattus norvegicus [5] it was 50.2 mg/kg.
Turning to `O=Cc1cccnc1N1CCN(CCCCN2C(=O)SC3(CCCC3)C2=O)CC1`, the IC50 in assay [3] turned out to be 9.6 nM; on D(2) dopamine receptor, 130 nM. Further, the values for the ED50 in the assay on Rattus norvegicus [4], in the assay filed under Rattus norvegicus [1] and in the assay with Rattus norvegicus [5] were 12.9 mg/kg, 60 mg/kg and 48 mg/kg, respectively.
On D(2) dopamine receptor, `O=C1CSC(=O)N1CCCCN1CCN(c2ccccn2)CC1` showed an IC50 of more than 1000 nM. In the assay on Rattus norvegicus [6], the ED50 entry was “inactive”. It took a dose of 45.8 mg/kg to reach the 50% effect level in the assay listed under Rattus norvegicus [1] (ED50).
On to `O=C1SC2(CCCC2)C(=O)N1CCCCN1CCN(c2ccccn2)CC1`, for which the IC50 on D(2) dopamine receptor is 620 nM. Also, in the assay with Rattus norvegicus [6], the ED50 result was “inactive”. The 50% effective dose (ED50) in the assay filed under Rattus norvegicus [1] is 20.8 mg/kg; in the assay with Rattus norvegicus [5] it was more than 95 mg/kg.
For `N#Cc1cccnc1N1CCN(CCCCN2C(=O)SC3(CCCC3)C2=O)CC1`, the values for the IC50 (in assay [3]; at D(2) dopamine receptor) were 35 nM and 34 nM, respectively. Further, the 50% effective dose (ED50) in the assay with Rattus norvegicus [4] was 9.2 mg/kg; in the assay listed under Rattus norvegicus [1], 38 mg/kg; with Rattus norvegicus [5] it was 29.3 mg/kg.
Regarding `Nc1cccnc1N1CCN(CCCCN2C(=O)SC3(CCCC3)C2=O)CC1`, the IC50 on D(2) dopamine receptor was more than 1000 nM. Besides, the ED50 result in the assay on Rattus norvegicus [6] was “inactive”. This molecule also had a 50% effective dose (ED50) in the assay listed under Rattus norvegicus [1] of more than 100 mg/kg.
`COc1cccnc1N1CCN(CCCCN2C(=O)SC3(CCCC3)C2=O)CC1` showed a concentration for half-maximal inhibition (IC50) on D(2) dopamine receptor of 79 nM. Besides, the ED50 entry in the assay on Rattus norvegicus [6] is “inactive”. The 50% effective dose (ED50) was 18.8 mg/kg in the assay listed under Rattus norvegicus [1] and less than 57 mg/kg in the assay on Rattus norvegicus [5].
The corresponding values for `O=C1SC2(CCCC2)C(=O)N1CCCCN1CCN(c2ncccc2-c2ccccc2)CC1` are 236 nM, “inactive”, more than 100 mg/kg and more than 100 mg/kg.
On D(2) dopamine receptor, `COc1cccc(N2CCN(CCCCN3C(=O)SC4(CCCC4)C3=O)CC2)n1` showed an IC50 of more than 1000 nM. The ED50 result with Rattus norvegicus [6] is “inactive”. Moreover, the ED50 was 35.9 mg/kg in the assay listed under Rattus norvegicus [1] and more than 100 mg/kg in the assay with Rattus norvegicus [5].
Take `CN1CCN(C2=Nc3cc(Cl)ccc3Nc3ccccc32)CC1`: the ED50 entry with Rattus norvegicus [6] is “inactive”.
`Cc1cccnc1N1CCN(CCCCN2C(=O)CC(C)(C)CC2=O)CC1` returned an IC50 on D(2) dopamine receptor of more than 1000 nM. For the same molecule, the values for the ED50 in the assay listed under Rattus norvegicus [1], with Rattus norvegicus [5] and in the assay with Rattus norvegicus [2] were 42.1 mg/kg, more than 100 mg/kg and more than 200 mg/kg, respectively.
Take `O=C1SC2(CCCC2)C(=O)N1CCCCN1CCN(c2ncccc2[N+](=O)[O-])CC1`: the IC50 was 34.1 nM in assay [3] and 69 nM on D(2) dopamine receptor. Further, the ED50 in the assay on Rattus norvegicus [4] was found to be 44.2 mg/kg; in the assay filed under Rattus norvegicus [1], 25.3 mg/kg; with Rattus norvegicus [5], 43.6 mg/kg.
Take `N#Cc1cccnc1N1CCN(CCCCN2C(=O)CSC2=O)CC1`: the results for the IC50 (in assay [3]; at D(2) dopamine receptor) were 39 nM and more than 1000 nM, respectively. In addition, in the assay on Rattus norvegicus [6], the ED50 result is “inactive”. The values for the ED50 in the assay listed under Rattus norvegicus [1] and in the assay with Rattus norvegicus [5] were 15.8 mg/kg and more than 100 mg/kg, respectively.
Molecule `CC1(C)CC(=O)N(CCCCN2CCN(c3ncccc3Cl)CC2)C(=O)C1` showed a concentration for half-maximal inhibition (IC50) at D(2) dopamine receptor of 360 nM. The 50% effective dose (ED50) in the assay listed under Rattus norvegicus [1] was 25.9 mg/kg; in the assay on Rattus norvegicus [2], 104 mg/kg.
`Cc1nnc(-c2cccnc2N2CCN(CCCCN3C(=O)CC4(CCCC4)CC3=O)CC2)o1` came in with an IC50 at D(2) dopamine receptor of 610 nM. For the same molecule, the ED50 in the assay filed under Rattus norvegicus [1] was determined as 70.9 mg/kg.
With `COC(=O)c1cccnc1N1CCN(CCCCN2C(=O)CC(C)(C)CC2=O)CC1`, the half-maximal inhibitory concentration (IC50) in assay [3] is 36.9 nM; at D(2) dopamine receptor it was more than 1000 nM. The median effective dose (ED50) in the assay listed under Rattus norvegicus [1] is 57 mg/kg; in the assay on Rattus norvegicus [5] it was 69.2 mg/kg; in the assay on Rattus norvegicus [2] it was 228 mg/kg.
Consider `Cc1cccnc1N1CCN(CCCCN2C(=O)CC3(CCCC3)CC2=O)CC1`, for which, on D(2) dopamine receptor, the IC50 is 476 nM. Further, the median effective dose (ED50) in the assay filed under Rattus norvegicus [1] was 46.4 mg/kg; with Rattus norvegicus [2], more than 186 mg/kg.
Turning to `O=C1COCC(=O)N1CCCCN1CCN(c2ncccc2-c2ccccc2)CC1`, the IC50 in assay [3] is 16 nM; at D(2) dopamine receptor, more than 41 nM. Moreover, the ED50 in the assay listed under Rattus norvegicus [1] is more than 100 mg/kg; with Rattus norvegicus [5], more than 63 mg/kg.
As for `O=C1SC2(CCCC2)C(=O)N1CCCCN1CCN(c2ncccc2Cl)CC1`, the results for the half-inhibitory concentration (IC50) (in assay [3]; on D(2) dopamine receptor) were 19.9 nM and 160 nM, respectively. The ED50 entry in the assay with Rattus norvegicus [6] is “inactive”. For the same molecule, the ED50 in the assay filed under Rattus norvegicus [1] was found to be 66.9 mg/kg; in the assay with Rattus norvegicus [5], 50 mg/kg.
Turning to `COc1cccc(N2CCN(CCCCN3C(=O)CC(C)(C)CC3=O)CC2)n1`, the IC50 in assay [3] is 68 nM; at D(2) dopamine receptor it was more than 1000 nM. The ED50 in the assay filed under Rattus norvegicus [1] worked out at 11.9 mg/kg; in the assay on Rattus norvegicus [5], 76.2 mg/kg; with Rattus norvegicus [2] it was 48 mg/kg.
Regarding `CO/N=C\c1cccnc1N1CCN(CCCCN2C(=O)SC3(CCCC3)C2=O)CC1`, the figures for the IC50 (in assay [3]; on D(2) dopamine receptor) were 67.4 nM and 428 nM, respectively. Moreover, the ED50 entry with Rattus norvegicus [6] is “inactive”. The median effective dose (ED50) in the assay filed under Rattus norvegicus [1] was found to be 71.3 mg/kg.
For `Cc1cccnc1N1CCN(CCCCN2C(=O)SC3(CCCC3)C2=O)CC1`, at D(2) dopamine receptor, the half-inhibitory concentration (IC50) worked out at 630 nM. In the assay on Rattus norvegicus [6], the ED50 entry is “inactive”. For the same molecule, the ED50 in the assay listed under Rattus norvegicus [1] was 46.4 mg/kg; in the assay on Rattus norvegicus [5], more than 50 mg/kg.
As for `O=C1COCC(=O)N1CCCCN1CCN(c2ncccc2Cl)CC1`, the IC50 in assay [3] is 16 nM; on D(2) dopamine receptor, more than 1000 nM. Besides, the ED50 in the assay listed under Rattus norvegicus [1] is 59.8 mg/kg; with Rattus norvegicus [5], more than 63 mg/kg.
For the molecule `O=C1COCC(=O)N1CCCCN1CCN(c2ncccc2[N+](=O)[O-])CC1`, the concentration for half-maximal inhibition (IC50) in assay [3] was 38.3 nM; at D(2) dopamine receptor, more than 1000 nM. The ED50 in the assay listed under Rattus norvegicus [1] is 55 mg/kg; in the assay on Rattus norvegicus [2] it was 220 mg/kg.

Values taken from ChEMBL document CHEMBL1124059, “Atypical antipsychotic agents: patterns of activity in a series of 3-substituted 2-pyridinyl-1-piperazine derivatives” (J Med Chem, 1988).
